Test results published in PubChem BioAssay (NCI).
Values joined by “and” are separate entries in the source; they are usually repeats but may differ in a detail not shown here. Equal values may be shown once.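 96-well plates; 48 h exposure; 5 concentrations. Endpoints by linear interpolation between flanking doses. Not reached: highest tested concentration assigned. At the GI50, growth is halved. The concentration for full growth arrest is given as TGI.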

Key:
Assay in all cases: NCI anticancer screen, dose series, 48 h
[1] = test system: MALME-3M melanoma
[2] = test system: OVCAR-4 ovarian
[3] = test system: OVCAR-5 ovarian
[4] = test system: SF-268 CNS
[5] = test system: M14 melanoma
[6] = test system: NCI-H460 lung
[7] = test system: A549 NSCLC
[8] = test system: HL-60(TB) leukemia
[9] = test system: MDA-MB-231 breast
[10] = test system: SK-MEL-2 melanoma

Row | Compound | GI50 [1] [µM] | TGI [1] | GI50 [2] [µM] | TGI [2] [µM] | GI50 [3] [µM] | TGI [3] [µM] | GI50 [4] [µM] | TGI [4] [µM] | GI50 [5] [µM] | TGI [5] [µM] | GI50 [6] [µM] | TGI [6] [µM] | GI50 [7] [µM] | TGI [7] [µM] | GI50 [8] [µM] | TGI [8] [µM] | GI50 [9] [µM] | TGI [9] [µM] | GI50 [10] [µM] | TGI [10] [µM]
1 | Cc1ccc(NC2=C(Cl)C(=O)N(Cc3ccccc3)C2=O)cc1Cl | 0.598 | 9.14 µM | 10.7 | 26.6 | 15.7 | 43.3 | 3.28 | 15.1 | 11 | 22.9 | 6.78 | 23.6 | 5.74 | 18.8 |  |  |  |  |  | 
2 | O=C(NC1CCCCC1)NS(=O)(=O)c1ccc(-n2nc3c(c2-c2ccc(Cl)cc2)Cc2ccccc2-3)cc1 |  |  | 28.8 | > 100 |  |  | 20.1 | 45.6 | 13.7 | > 100 | 19.8 | 46 | 16.6 | 34.6 | 4.28 | 14.6 | 6.43 | 23 | 19.4 | 44.2
3 | CCCCCCCCCCCCCCCCCC(=O)OCC(C[As](=O)(O)O)OC(=O)CCCCCCCCCCCCCCCCC (stereo not given) |  | > 100 µM |  | > 100 |  | > 100 |  | > 100 |  | > 100 |  | > 100 |  | > 100 |  | > 100 |  |  |  | > 100
4 | Oc1ccc(-c2cn3cc(Cl)sc3n2)cc1 |  |  |  |  |  |  | 12.2 | 80.2 | 20.1 | 56.8 | 12.9 | 53.5 | 30.8 | > 100 |  |  | > 100 | > 100 | > 100 | > 100
5 | O=C1CC[C@H](c2ccc(O)c3c2C(=O)[C@@H]2O[C@@H]2C3=O)c2cccc(O)c21 | 2.31 | 6.37 µM | 3.51 | 13.9 | 4.55 | 20.3 | 2.32 | 6.17 | 1.9 | 4.09 | 3.74 | 30.4 | 16.4 | 40.9 | 1.93 | 5.87 |  |  | 13 | 26.9
6 | COC1=C2C[C@@H](C)C[C@@H](OC)[C@@H](O)[C@H](C)/C=C(\C)[C@@H](OC(N)=O)[C@H](OC)/C=C\C=C(/C)C(=O)NC(=CC1=O)C2=O |  | 8.13 µM and 3.44 µM and 1.13 µM |  |  |  |  |  |  |  |  |  |  |  |  |  |  |  |  |  | 
7 | COc1ccc(C(=O)CC(=O)C(=O)Nc2ccc(C)c(C)c2)cc1 |  | > 100 µM |  | > 100 |  | > 93.7 |  | > 100 |  | > 100 |  | > 56.8 |  | > 100 |  | > 64.3 |  |  |  | > 100
8 | COc1ccccc1C(N)c1ccccc1 (stereo not given) |  | > 100 µM |  | > 100 |  | > 100 |  | > 100 |  | > 100 |  | > 100 |  | > 100 |  | > 100 |  |  |  | 
9 | CN(C)C1=NC2=S(SC(Nc3ccccc3)=N2)S1 (stereo not given) |  | 46.5 µM |  | > 100 |  | > 100 |  | > 100 |  | > 100 |  | > 100 |  | 47.2 |  | > 100 |  |  |  | > 100
10 | O=C(c1nc2ccc(Cl)cc2[nH]c1=O)C(O)c1ccc2c(c1)OCO2 (stereo not given) |  | > 100 µM |  | > 100 |  | > 100 |  | > 100 |  | > 100 |  | > 100 |  | > 100 |  | > 100 |  |  |  | > 100
11 | COC(=O)C1=C(c2ccc3c(c2)OCO3)OC(c2ccc3c(c2)OCO3)C1 (stereo not given) |  | > 100 µM |  | > 100 |  | > 100 |  | > 100 |  | > 100 |  | > 100 |  | > 100 |  | > 100 |  |  |  | > 100
12 | O=C(NCCNc1nccc(-c2c(-c3ccc(F)cc3)nc3sccn23)n1)c1ccccc1 |  |  | 15.1 | 71.7 | 18.1 | 99.3 | 12.4 | > 100 | 7.97 | 22.3 | 3.28 | 22.3 | 4.11 | 96.7 | 21.3 | 77.4 | 15.2 | 67.2 | 8.75 | 39.3
13 | CCC[CH2][Sn]1([CH2]CCC)[O]CC(CN2CCOCC2)[O]1 (stereo not given) | 1.62 | 5.64 µM | 11.2 | 23.4 | 18.8 | 32.8 | 1.79 | 5.52 | 2.86 | 10.3 | 13.6 | 26.5 | 18.3 | 32.2 | 1.17 | 3.62 |  |  | 1.53 | 3.66
14 | CCC1CC(C)=CCN1S(=O)(=O)c1ccc(C)cc1 (stereo not given) |  | 61.7 µM |  | > 100 |  | > 100 |  | 62.1 |  | 57.5 |  | 91.7 |  | > 100 |  | 18 |  |  |  | 27.2
15 | COc1ccc(NC(=O)CC(=O)N2N=C(N(CCC#N)c3cccc(C)c3)CC2c2ccccc2)cc1 (stereo not given) |  | > 100 µM |  | > 100 |  | > 100 |  | > 100 |  | > 100 |  | > 100 |  | > 100 |  | > 100 |  |  |  | > 100
16 | CCC(c1ccc2cc(O)ccc2c1)C(C)(C)C(=O)O (stereo not given) |  | > 100 µM |  | > 100 |  | > 100 |  | > 100 |  | > 100 |  | > 100 |  | > 100 |  |  |  | > 100 |  | > 100
17 | COc1ccc(C(=O)C(C(=O)C(=O)NC2C3CC4CC(C3)CC2C4)c2ccc(OC)cc2)cc1 (stereo not given) |  | > 100 µM |  | > 100 |  | > 100 |  | > 100 |  | > 100 |  | > 100 |  | > 100 |  | > 100 |  |  |  | > 100
18 | COc1cc(Nc2nc3cc(C(F)(F)F)ccc3nc2-c2ccccc2)cc(OC)c1OC |  | > 100 µM |  | 51.3 |  | > 100 |  | > 100 |  | > 100 |  | > 100 |  | > 100 |  | > 100 |  |  |  | > 100
19 | CC1=NC(C(C)C)C(=O)O1 (stereo not given) |  | > 100 µM |  | > 100 |  | > 100 |  | > 100 |  | > 100 |  | > 100 |  |  |  | > 100 |  |  |  | 
20 | CCOC(=O)NC(=O)c1cn(CCCOC(=O)NCCCCCCNC(=O)OCCCn2cc(C(=O)NC(=O)OCC)c(=O)[nH]c2=O)c(=O)[nH]c1=O |  |  |  | 29.6 |  |  |  |  |  | 35.4 |  | > 100 |  | > 100 |  | 41.7 |  |  |  | 
21 | O=NN/C(=C1\Nc2ccc([N+](=O)[O-])cc2NC1=O)C(O)c1ccc([N+](=O)[O-])cc1 (stereo not given) |  | > 100 µM |  | > 100 |  | > 100 |  | > 100 |  | > 100 |  | > 100 |  | > 100 |  | > 100 |  |  |  | 
